Laboratory results taken from PMC11200219 (JACS Au, 2024).

Key:
[1] = biological target: T1, bovine pancreatic DNase I (Bos taurus, UniProt P00639); details: cited from earlier work
[2] = biological target: T1, bovine pancreatic DNase I; assay: DNase I assay; format: biochemical; details: in the absence of Mn007
[3] = stated in the introduction without reference; cited from earlier work

T1 sequence (P00639 23-282): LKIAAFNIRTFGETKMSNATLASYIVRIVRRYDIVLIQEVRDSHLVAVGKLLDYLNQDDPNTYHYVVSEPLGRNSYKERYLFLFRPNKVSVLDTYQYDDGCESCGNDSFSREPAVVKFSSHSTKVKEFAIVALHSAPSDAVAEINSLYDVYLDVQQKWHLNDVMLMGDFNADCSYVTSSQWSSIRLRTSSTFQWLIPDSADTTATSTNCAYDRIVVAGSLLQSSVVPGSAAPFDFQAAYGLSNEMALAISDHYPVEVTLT

Effect on activity of DNase I [2] | Compound | Inhibition of bovine pancreatic DNase I (reported) [1] | Cytotoxicity [3]
 | O=C(O)CN(CCN(CC(=O)O)CC(=O)O)CC(=O)O [EDTA] | reported to inhibit | 
did not affect the activity of DNase I | CC(O)COC[C@H]1O[C@@H]2O[C@H]3[C@H](O)[C@@H](O)[C@@H](O[C@H]4[C@H](O)[C@@H](O)[C@@H](O[C@H]5[C@H](O)[C@@H](O)[C@@H](O[C@H]6[C@H](O)[C@@H](O)[C@@H](O[C@H]7[C@H](O)[C@@H](O)[C@@H](O[C@H]8[C@H](O)[C@@H](O)[C@@H](O[C@H]1[C@H](O)[C@H]2O)O[C@@H]8COCC(C)O)O[C@@H]7COCC(C)O)O[C@@H]6COCC(C)O)O[C@@H]5COCC(C)O)O[C@@H]4COCC(C)O)O[C@@H]3COCC(C)O (stereo partly drawn) [HyβCD, 2-Hydroxypropyl-β-cyclodextrin] |  | 
 | CN(C)c1ccc(C(=C2C=CC(=[N+](C)C)C=C2)c2ccc(N(C)C)cc2)cc1 [crystal violet] | reported to inhibit | show cytotoxicity
 | actin | reported to inhibit | 
